As usually defined, the IC50 is the concentration that gives 50% inhibition. Low readings indicate greater potency, high ones weaker potency.

Series [1] deals with ATP-dependent translocase ABCB1 (Homo sapiens, UniProt P08183). Put plainly: Inhibition of P-gp in human A2780 cells. To be noted: for Activity: human, a2780. It is filed as cell-based.
In series [2] the target is ATP-binding cassette sub-family C member 2 (Homo sapiens, UniProt Q92887). Description: Inhibition of human MRP2 expressed in dog MDCK2 cells. It counts as cell-based, MDCK-II. To be noted: for Activity: human, mdck-ii.
The target in series [3] is Multidrug resistance-associated protein 1 (Homo sapiens, UniProt P33527). Description: Inhibition of human MRP1 in human 2008 cells assessed as increase in calcein-AM accumulation. It is filed as cell-based.
Chain of Multidrug resistance-associated protein 1 (P33527 whole entry): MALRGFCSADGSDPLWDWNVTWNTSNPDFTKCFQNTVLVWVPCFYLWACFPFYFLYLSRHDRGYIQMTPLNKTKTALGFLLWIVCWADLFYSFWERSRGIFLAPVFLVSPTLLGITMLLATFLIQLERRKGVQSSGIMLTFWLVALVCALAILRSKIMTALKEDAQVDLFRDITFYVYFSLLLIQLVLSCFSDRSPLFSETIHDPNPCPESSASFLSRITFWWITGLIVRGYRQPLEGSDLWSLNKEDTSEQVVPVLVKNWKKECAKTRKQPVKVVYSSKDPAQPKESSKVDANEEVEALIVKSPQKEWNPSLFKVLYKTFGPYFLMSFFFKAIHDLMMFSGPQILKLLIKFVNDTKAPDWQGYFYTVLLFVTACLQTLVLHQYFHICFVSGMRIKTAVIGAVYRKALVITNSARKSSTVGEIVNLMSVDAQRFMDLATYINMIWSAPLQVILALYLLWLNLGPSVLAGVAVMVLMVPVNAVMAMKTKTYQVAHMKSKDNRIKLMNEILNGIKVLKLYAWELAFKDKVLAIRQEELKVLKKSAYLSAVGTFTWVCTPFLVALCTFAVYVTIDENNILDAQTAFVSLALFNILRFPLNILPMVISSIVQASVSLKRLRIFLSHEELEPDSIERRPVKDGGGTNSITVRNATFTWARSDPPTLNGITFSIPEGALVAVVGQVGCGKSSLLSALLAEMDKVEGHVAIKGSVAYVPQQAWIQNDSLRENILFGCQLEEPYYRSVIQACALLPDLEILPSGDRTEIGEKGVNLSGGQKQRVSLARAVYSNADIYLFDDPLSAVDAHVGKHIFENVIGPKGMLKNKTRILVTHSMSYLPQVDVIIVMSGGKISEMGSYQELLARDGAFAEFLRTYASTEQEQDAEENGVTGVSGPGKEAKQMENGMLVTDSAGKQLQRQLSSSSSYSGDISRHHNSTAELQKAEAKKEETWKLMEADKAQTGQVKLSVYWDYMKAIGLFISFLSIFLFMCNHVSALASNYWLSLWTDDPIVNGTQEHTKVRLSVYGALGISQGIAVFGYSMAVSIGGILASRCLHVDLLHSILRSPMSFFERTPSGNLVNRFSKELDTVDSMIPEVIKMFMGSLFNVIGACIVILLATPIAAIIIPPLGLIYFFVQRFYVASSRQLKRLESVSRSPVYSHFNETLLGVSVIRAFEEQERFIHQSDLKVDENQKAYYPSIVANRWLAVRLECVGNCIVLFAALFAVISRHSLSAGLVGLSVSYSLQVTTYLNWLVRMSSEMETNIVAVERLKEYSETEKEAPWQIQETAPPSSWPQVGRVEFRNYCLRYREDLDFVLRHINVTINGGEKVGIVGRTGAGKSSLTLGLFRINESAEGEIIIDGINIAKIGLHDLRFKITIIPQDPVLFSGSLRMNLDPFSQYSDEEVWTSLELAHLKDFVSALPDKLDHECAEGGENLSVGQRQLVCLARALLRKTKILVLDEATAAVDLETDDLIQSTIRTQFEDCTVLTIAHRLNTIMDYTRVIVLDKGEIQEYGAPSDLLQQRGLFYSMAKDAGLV

Chain of ATP-dependent translocase ABCB1 (P08183 whole entry): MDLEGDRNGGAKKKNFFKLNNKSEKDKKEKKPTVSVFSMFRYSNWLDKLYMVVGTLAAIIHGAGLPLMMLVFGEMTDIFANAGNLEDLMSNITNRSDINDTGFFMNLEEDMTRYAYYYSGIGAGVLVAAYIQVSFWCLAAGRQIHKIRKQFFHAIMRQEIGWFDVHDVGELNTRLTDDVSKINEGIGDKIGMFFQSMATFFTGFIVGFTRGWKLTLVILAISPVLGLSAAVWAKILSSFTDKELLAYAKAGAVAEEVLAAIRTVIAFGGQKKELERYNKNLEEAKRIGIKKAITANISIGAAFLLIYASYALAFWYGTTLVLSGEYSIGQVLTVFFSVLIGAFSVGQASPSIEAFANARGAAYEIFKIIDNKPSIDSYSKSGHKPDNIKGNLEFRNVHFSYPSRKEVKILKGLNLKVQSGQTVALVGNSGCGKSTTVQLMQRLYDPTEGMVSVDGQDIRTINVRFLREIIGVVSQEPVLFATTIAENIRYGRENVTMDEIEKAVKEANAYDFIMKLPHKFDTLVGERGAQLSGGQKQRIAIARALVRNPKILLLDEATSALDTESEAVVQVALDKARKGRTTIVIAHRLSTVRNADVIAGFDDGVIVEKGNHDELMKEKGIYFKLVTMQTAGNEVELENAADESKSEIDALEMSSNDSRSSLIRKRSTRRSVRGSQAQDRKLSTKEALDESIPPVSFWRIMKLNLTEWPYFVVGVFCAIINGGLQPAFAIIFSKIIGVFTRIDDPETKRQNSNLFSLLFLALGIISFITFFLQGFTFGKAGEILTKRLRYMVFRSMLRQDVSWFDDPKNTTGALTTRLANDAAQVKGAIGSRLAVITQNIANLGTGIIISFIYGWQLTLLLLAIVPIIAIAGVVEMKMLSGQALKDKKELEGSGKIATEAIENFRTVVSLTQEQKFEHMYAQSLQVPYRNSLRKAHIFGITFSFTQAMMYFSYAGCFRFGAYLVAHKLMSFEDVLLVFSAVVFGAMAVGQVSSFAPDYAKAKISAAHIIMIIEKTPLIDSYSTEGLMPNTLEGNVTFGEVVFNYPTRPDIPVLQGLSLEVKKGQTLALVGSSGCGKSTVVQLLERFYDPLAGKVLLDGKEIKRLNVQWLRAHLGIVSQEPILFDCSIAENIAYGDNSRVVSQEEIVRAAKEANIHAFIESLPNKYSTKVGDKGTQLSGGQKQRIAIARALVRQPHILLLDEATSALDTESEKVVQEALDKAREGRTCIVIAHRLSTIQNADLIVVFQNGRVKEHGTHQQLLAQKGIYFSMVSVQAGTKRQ
Chain of ATP-binding cassette sub-family C member 2 (Q92887 whole entry): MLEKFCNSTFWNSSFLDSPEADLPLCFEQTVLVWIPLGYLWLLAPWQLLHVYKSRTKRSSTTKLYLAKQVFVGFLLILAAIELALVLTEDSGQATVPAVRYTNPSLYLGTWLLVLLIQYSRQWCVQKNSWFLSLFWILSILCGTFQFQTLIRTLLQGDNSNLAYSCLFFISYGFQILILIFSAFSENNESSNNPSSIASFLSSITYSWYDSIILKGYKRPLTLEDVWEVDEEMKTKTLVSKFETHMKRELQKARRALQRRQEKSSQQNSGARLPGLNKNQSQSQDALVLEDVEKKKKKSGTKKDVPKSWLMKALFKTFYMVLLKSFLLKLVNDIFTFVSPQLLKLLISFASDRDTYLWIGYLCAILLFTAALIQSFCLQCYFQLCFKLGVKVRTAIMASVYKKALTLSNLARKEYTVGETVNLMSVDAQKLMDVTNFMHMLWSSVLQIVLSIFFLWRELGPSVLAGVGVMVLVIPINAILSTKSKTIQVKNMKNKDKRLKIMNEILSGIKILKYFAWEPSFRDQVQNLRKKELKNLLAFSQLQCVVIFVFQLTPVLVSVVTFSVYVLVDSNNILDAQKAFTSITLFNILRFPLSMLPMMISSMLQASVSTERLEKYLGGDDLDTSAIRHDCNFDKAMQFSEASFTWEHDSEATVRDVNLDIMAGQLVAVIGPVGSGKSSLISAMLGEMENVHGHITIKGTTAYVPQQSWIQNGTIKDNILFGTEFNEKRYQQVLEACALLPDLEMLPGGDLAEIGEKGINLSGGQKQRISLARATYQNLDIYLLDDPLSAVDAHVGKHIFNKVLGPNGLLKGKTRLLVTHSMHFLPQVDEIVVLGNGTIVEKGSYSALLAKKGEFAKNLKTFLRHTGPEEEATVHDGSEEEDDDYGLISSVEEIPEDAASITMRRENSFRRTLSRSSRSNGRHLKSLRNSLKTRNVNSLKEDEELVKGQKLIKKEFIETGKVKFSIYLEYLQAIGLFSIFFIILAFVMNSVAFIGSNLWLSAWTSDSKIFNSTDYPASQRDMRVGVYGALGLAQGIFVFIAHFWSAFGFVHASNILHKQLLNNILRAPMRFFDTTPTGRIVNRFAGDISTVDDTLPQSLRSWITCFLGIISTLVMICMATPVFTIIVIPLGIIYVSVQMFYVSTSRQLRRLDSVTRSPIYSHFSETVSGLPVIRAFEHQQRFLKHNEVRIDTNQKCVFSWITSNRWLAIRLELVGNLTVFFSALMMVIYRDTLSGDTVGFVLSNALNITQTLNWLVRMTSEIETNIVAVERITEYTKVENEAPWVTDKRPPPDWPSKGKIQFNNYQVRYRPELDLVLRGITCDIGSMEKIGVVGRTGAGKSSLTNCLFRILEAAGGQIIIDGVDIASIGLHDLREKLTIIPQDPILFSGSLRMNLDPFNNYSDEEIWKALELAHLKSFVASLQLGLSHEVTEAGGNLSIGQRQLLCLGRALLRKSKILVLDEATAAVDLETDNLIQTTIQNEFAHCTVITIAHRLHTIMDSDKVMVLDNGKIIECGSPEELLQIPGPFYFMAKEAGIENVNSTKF

As to `Nc1nc2sc3c(c2c(=O)s1)CCCC3`, the IC50 in series [1] is over 200 µM. The Activity result in series [2] is listed as “Not Active”.
With `CCOC(=O)c1c(NC(=S)Nc2ccc(C(=O)O)cc2)sc2c1CCCC2`, the Activity result in series [1] is “Not Active”. Also, the IC50 in series [2] was over 200 µM.
As for `O=C(Nc1nc2sc3c(c2c(=O)s1)CCCC3)c1ccccc1`, the Activity result in series [1] and in series [2] was “Not Active” each time.
For `O=C(O)c1ccc(Nc2nc3sc4c(c3c(=O)s2)CCCC4)cc1`, the Activity entry is on record as “Not Active” in series [1] and “Active” in series [3]. For the same compound, the IC50 in series [2] amounted to 21.5 µM.
As to `CN(C)C(=O)CCSC(SCCC(=O)[O-])c1cccc(/C=C/c2ccc3ccc(Cl)cc3n2)c1.[Na+]` (stereo not drawn), in series [1], the Activity result is on record as “Not Active”. The compound also returned an IC50 in series [2] of 20.7 µM.
In the same order, the values of `COc1ccc2c(c1)c(CC(=O)O)c(C)n2C(=O)c1ccc(Cl)cc1` [INDOMETHACIN] are “Not Active” and 235 µM.

The record behind these values is ChEMBL document CHEMBL1140042, “A 4-aminobenzoic acid derivative as novel lead for selective inhibitors of multidrug resistance-associated proteins” (Bioorg Med Chem Lett, 2008).
